Data published in patent US5597703A, “Methods for determing cholesterol oxidase activity in an aqueous test sample, determining whether a test compound is capable of inhibiting cholesterol oxidase activity and determining the degree of cholesterol oxidase inhibitory activity” (priority 1994, dated 1997).

System: cholesterol oxidase
Test: estimating the toxicity of chemical compounds by presence or absence of sterol domain fade-out in a monolayer on cholesterol oxidase aqueous solution
Type: biochemical
Details: cholesterol oxidase 5×10^-3 unit/ml
[1] = 1 mM test compound, monolayer DMPC 0.68 mM / cholesterol 0.3 mM / NBD-PC 0.02 mM

Description: In the first embodiment of the method for estimating the toxicity of chemical compounds, there is used cholesterol oxidase HEPES buffer solution of 5×10^-3 unit/ml as the cholesterol oxidase aqueous solution 12. Herein, HEPES means N-2-hydroxyethylpiperazine-N'-2-ethane sulfonic acid which has 0.1 of ionic strength and 7.45 of pH. […] As the monolayer spread solution 13, there is used a solution consisting of 0.68 mM of DMPC (L-α-dimyristoylphosphatidylcholine), 0.3 mM of cholesterol and 0.02 mM of fluorescent dye labeled phospholipid NBD-PC (1-palmitoyl-2-[12-[(7-nitro-2-1,3-benzoxadiazol-4-yl) amino]dodecanoyl]phosphatidylcholine) chloroform. The monolayer spread solution 13 is dropped in the amount of 9.4 ml thereof onto a surface (42.6 cm^2) of the cholesterol oxidase aqueous solution 12 in which 1 mM of zinc chloride is dissolved, and then there is immediately formed a monolayer on the surface.
In the second embodiment, there is used cholesterol oxidase HEPES buffer solution of 5×10^-3 unit/ml as the cholesterol oxidase aqueous solution 12. In the HEPES solution is dissolved 1 mM of calcium chloride the toxicity of which is to be estimated. As the monolayer spread solution 13, there is used a solution consisting of 0.68 mM of DMPC (L-α-dimyristoylphosphatidylcholine), 0.3 mM of cholesterol and 0.02 mM of fluorescent dye labeled phospholipid NBD-PC (1-palmitoyl-2-[12-[(7-nitro-2-1,3-benzoxadiazol-4-yl)amino]dodecanoyl]phosphatyzircoline) chloroform. Similarly to the first embodiment, the monolayer spread solution 13 is dropped onto a surface of the cholesterol oxidase aqueous solution 12, and then there is immediately formed a monolayer on the surface.
In the third embodiment, there is used cholesterol oxidase HEPES buffer solution of 5×10^-3 unit/ ml as the cholesterol oxidase aqueous solution 12. […] As the monolayer spread solution 13, there is used a solution consisting of 0.68 mM of DPPC (L-α-dipalmitoylphosphatidylcholine), 0.3 mM of dihydrocholesterol and 0.02 mM of fluorescent dye labeled phospholipid NBD-PE (1-palmitoyl-2-[12-[(7-nitro-2-1,3-benzoxadiazol-4-yl) amino]dodecanoyl]phosphatidylethanolamine) chloroform. Similarly to the first embodiment, there is formed a monolayer on a surface of the cholesterol oxidase aqueous solution 12 by dropping the monolayer spread solution 13 as above mentioned on the surface.
In the fourth embodiment, there is used cholesterol oxidase HEPES buffer solution of 5×10^-3 unit/ml as the cholesterol oxidase aqueous solution 12. […] As the monolayer spread solution 13, there is used a solution consisting of 0.68 mM of DPPE (L-α-tdipalmitoylphosphatidylethanolamine), 0.3 mM of pregnenolone and 0.02 mM of fluorescent dye labeled phospholipid TR-DPPE (N-(texasredsulfonyl)-L-α-dipalmitoylphosphatidylethanolamine) chloroform.

CCCCCCCCCCCCOS(=O)(=O)[O-].[Na+] [SDS, sodium dodecyl sulfate]
toxicity to cholesterol oxidase (sterol domain fade-out 30 minutes after monolayer formation) (0.1 mM test compound, monolayer DPPE 0.68 mM / pregnenolone 0.3 mM / TR-DPPE 0.02 mM): has the toxicity to cholesterol oxidase

[Ca+2].[Cl-].[Cl-] [calcium chloride]
toxicity to cholesterol oxidase (sterol domain fade-out 30 minutes after monolayer formation) [1]: not toxic to cholesterol oxidase

[Cl][Hg][Cl] [mercury (II) chloride]
toxicity to cholesterol oxidase (sterol domain fade-out 30 minutes after monolayer formation) (1 mM test compound, monolayer DPPC 0.68 mM / dihydrocholesterol 0.3 mM / NBD-PE 0.02 mM): has the toxicity to cholesterol oxidase

[Cl-].[Cl-].[Zn+2] [zinc chloride]
toxicity to cholesterol oxidase (sterol domain fade-out 30 minutes after monolayer formation) [1]: toxic to cholesterol oxidase
